The test system of series [1] is analgesia and inflammation. Put plainly: oral administration to human: analgesia and inflammation. It is filed as in vivo. The procedure:
A composition for oral administration of N-vanillyl-5Z,8Z,11Z,14Z-eicosatetraenamide is prepared by a substantially similar method.

Series [2] concerns analgesia and inflammation. Put plainly: intramuscular administration to human: analgesia and inflammation. It is filed as in vivo. The conditions noted are these: Example III, ethyl oleate/benzyl alcohol, 1.5 ml in 65 kg human. How it is done: The octadecatrienamide is dissolved in the solution combining ethyl oleate and benzyl alcohol, sealed into airtight 5 ml ampoules, and sterilized by autoclaving.
A composition for parenteral administration of N-vanillyl-5Z,8Z,11Z,14Z-eicosatetraenamide is prepared by a substantially similar method.

The test system of series [3] is analgesia and inflammation. In words: topical administration to human: analgesia and inflammation. The format is in vivo. The conditions noted are these: Example VI, 0.4 ml to 80 cm^2 of forearm of 60 kg human. How it is done: The octadecatrienamide is melted to a liquid with slight warming and combined with the other ingredients.
A composition for topical application of N-vanillyl-5Z,8Z,11Z,14Z-eicosatetraenamide is prepared by a substantially similar method.

Series [4] relates to croton oil-induced mouse ear inflammation. Put plainly: croton oil-induced mouse ear inflammation test. The format is in vivo, mouse (adult male Cox ICR mice). The conditions noted are these: 25 μl of 1% ethanolic solution on left ear, 20-28 h and 5-6 h prior to sacrifice; 2% croton oil 4 h prior to sacrifice. The procedure: Two trienamide compositions were tested for anti-inflammatory activity using the croton oil-induced mouse ear inflammation test.
Adult male Cox ICR mice, 20-30 g, were treated on the left ear at 20-28 hours prior to sacrifice and a second time 5-6 hours prior to sacrifice with 25 μl of a 1% ethanolic solution of the test compound. Four hours prior to sacrifice both ears were treated with 25 μl of a 2% solution of croton oil in acetone. Each animal was then placed in individual cages and given food and water ad lib. Animals were sacrificed by cervical dislocation and both ears removed. From these ears, 0.38 cm^2 punch biopsies were taken from the central portion and each biopsy weighed on a Cahn electrobalance.
For each test substance, a group of 10 animals was used. Control groups either had both ears treated with croton oil or just the right ear. It was experimentally determined that a value of 11.0 mg could be assumed for a punch biopsy from a normal untreated ear and still be within the experimental error of the test. Therefore, for the calculation of percent inhibition, a value of 11.0 mg was used. [formula]
This calculation is valid only when no systemic effects are noted as evidenced by comparison of right ears of treated and control groups.
Statistical signifance at the 95% confidence level was determined by the paired test.

Series [5] concerns phenylbenzoquinone-induced writhing. In words: phenylquinone writhing assay. It is filed as in vivo, mouse (male mice). Particulars: oral gavage 3 h before i.p. 0.2% phenylbenzoquinone; 10 minute period; vehicle control 17.4 ± 1.7. How it is done: Three trienamide composition were tested for analgesic and anti-inflammatory activity using the phenylquinone writhing assay.
Groups of eight male mice weighing between approximately 25 and 30 g were dosed orally by gavage with the composition to be tested. Identical groups of mice were dosed with control compositions. Three hours after this initial administration, the mice were injected intraperitoneally with a 0.2% solution of phenylbenzoquinone in aqueous ethanol. The ability of the analgesic compositions tested to relieve the discomfort induced was measured by counting the number of abdominal contractions, or "writhes", occurring in each mouse during a 10 minute period beginning 10 minutes after injection of the phenylbenzoquinone solution.
In general terms: In writhing tests, fewer writhes than in controls are read as antinociception.

Series [6] is described as follows: toxicity and narcotic side effects (general statement). It is filed as in vivo.
In series [7] the test system is analgesia and inflammation. Put plainly: analgesic and anti-inflammatory activity (general statement). The format is in vivo.
Series [8] deals with analgesia and inflammation. Particulars: background, literature on capsaicin; cited from earlier work.
The subject of series [9] is threshold for the perception of pain (hot plate, 55° C.). The conditions noted are these: unless administered in toxic quantities; cited from earlier work.
Series [10] has the same test system. In words: Rodent Hot Plate Test (rats, VL).
The mark [11] stands for this setting: Example IV, sesame oil soft gelatin capsules, two capsules of 225 mg in 60 kg human.
The mark [12] stands for this setting: Example V, syrup, one teaspoon in 70 kg adult human.

Where two headings read alike, the source gives them in different places.

As a reminder, the % Inhibition is the drop in the measured response relative to a control, in per cent. As for `CCCCC/C=C\C/C=C\C/C=C\CCCCC(=O)NCc1ccc(O)c(OC)c1` [N-vanillyl-6Z,9Z,12Z-octadecatrienamide], the reduction of inflammation result in series [1] (setting [11]), in [1] (setting [12]), in series [2] and in [3] was “substantially similar reduction of inflammation” in each case. Besides, the “% Inhibition” value in series [4] was 100.7 ± 11.9%. In [5], this compound yielded a Writhes/10 minutes of 0.0 ± 0.0 Writhes/10 minutes.

For the compound `CC/C=C\C/C=C\C/C=C\CCCCCCCCCC(=O)NCc1ccc(O)c(OC)c1` [N-vanillyl-11Z,14Z,17Z-eicosatrienamide], the “undesirable narcotic side effects (tolerance, physical dependence)” value in series [6] is “does not exhibit undesirable narcotic side effects”. For the same compound, the reduction of inflammation entry in series [1] (setting [11]), in [1] (setting [12]), in series [2] and in series [3] was “substantially similar reduction of inflammation” each time. Besides, the “analgesic activity / potency compared with aspirin and opioids” value in [7] is given as “analgesic activity comparable to that of the opioids”. The Writhes/10 minutes in series [5] is 0.4 ± 0.3 Writhes/10 minutes.

For the compound `CCCCC/C=C\C/C=C\C/C=C\C/C=C\CCCC(=O)NCc1ccc(O)c(OC)c1` [N-vanillyl-5Z,8Z,11Z,14Z-eicosatetraenamide], the analgesia result in series [1] (setting [11]), in series [1] (setting [12]), in [2] and in series [3] was “produces analgesia” in each case. For the same compound, the reduction of inflammation result in [1] (setting [11]), in series [1] (setting [12]), in series [2] and in series [3] was “reduces inflammation” in each case.

As for `COc1cc(CNC(=O)CCCCC=CC(C)C)ccc1O` [capsaicin, 8-methyl-N-vanillyl-6-nonenamide], in [8], the analgesia entry is “induces analgesia”.

On to `CC(=O)Oc1ccccc1C(=O)O` [aspirin], for which, in [9], the “activity in the RHP system” value is reported as “little or no activity”.

`CC(=O)Nc1ccc(O)cc1` [acetaminophen]: the “activity in the RHP system” value in series [9] was “little or no activity”.

Take `CC/C=C\C/C=C\C/C=C\CCCCCCCC(=O)NCc1ccc(O)c(OC)c1` [N-vanillyl-9Z,12Z,15Z-octadecatrienamide]: the analgesia result in series [1] (setting [11]) is “producing analgesia”; in [1] (setting [12]), “producing analgesia”; in series [2] it was “produces analgesia”; in series [3], “produces analgesia”. The reduction of inflammation result is given as “reducing inflammation” in series [1] (setting [11]), “reducing inflammation” in [1] (setting [12]), “reduces inflammation” in series [2] and “reduces inflammation” in [3]. Further, the “% Inhibition” value in series [4] is recorded as 78.5 ± 31.9%. Further, the “% Animals Analgesic” value in series [10] (Example X, 20 mg/kg oral in sesame oil, 1 hr post-dose, vehicle 0) is 70%; in series [10] (Example X, 20 mg/kg oral in sesame oil, 2 hrs post-dose, vehicle 20), 30%; in series [10] (Example X, 20 mg/kg oral in sesame oil, 3 hrs post-dose, vehicle 0), 10%; in series [10] (Experiment A, 200 mg/kg oral in propylene glycol, 1 hr post-dose, vehicle 20), 80%; in series [10] (Experiment A, 200 mg/kg oral in propylene glycol, 2 hrs post-dose, vehicle 10), 40%; in series [10] (Experiment A, 200 mg/kg oral in propylene glycol, 3 hrs post-dose, vehicle 0), 30%. Moreover, the “% Animals Analgesic” value in series [10] (Experiment B, 200 mg/kg oral in propylene glycol, 1 hr post-dose, vehicle 0) is listed as 50%; in [10] (Experiment B, 200 mg/kg oral in propylene glycol, 2 hrs post-dose, vehicle 20) it was 60%; in series [10] (Experiment B, 200 mg/kg oral in propylene glycol, 3 hrs post-dose, vehicle 0) it was 20%; in series [10] (Experiment C, 288 mg/kg oral in propylene glycol, 1 hr post-dose, vehicle 10) it was 50%; in series [10] (Experiment C, 288 mg/kg oral in propylene glycol, 2 hrs post-dose, vehicle 0) it was 10%; in series [10] (Experiment C, 288 mg/kg oral in propylene glycol, 3 hrs post-dose, vehicle 0), 0%. For the same compound, the Writhes/10 minutes in [5] is reported as 0.4 ± 0.3 Writhes/10 minutes.
